Results on 43 compounds are retold here after patent publication US20170320870A1 (Medical Research Council Technology, priority 2009, published 2017).

The target in the assay is T1, LRRK2 wild type (recombinant human, catalytic domain amino acids 970-2527, GST-tagged) (Homo sapiens, UniProt Q5S007).
T1 construct: The wild type used was recombinant human, catalytic domain (amino acids 970-2527) GST-tagged, expressed in insect cells; GST; purchased Invitrogen Corporation PV4873; host or cells: insect cells
In words: LRRK2 wild type protein kinase assay ([γ-33P] ATP, peptide substrate […]), IC50. Format: biochemical. The conditions noted are these: LRRK2 (variant not given); read-out: Potency score, LRRK2 IC50. A digest of the protocol: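 IC50 derived from duplicate 10-point titrations, with 33P incorporation into a 100 μM peptide counted after P81 filter capture. Roughly 5 nM unactivated kinase reacted with Mg/[γ-33P]ATP for 180 min at room temperature (~21 °C), pH 7.5 Tris buffer containing 10 mM MgCl2, EGTA and DTT; acid-quenched.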

T1 sequence (Q5S007 970-2527): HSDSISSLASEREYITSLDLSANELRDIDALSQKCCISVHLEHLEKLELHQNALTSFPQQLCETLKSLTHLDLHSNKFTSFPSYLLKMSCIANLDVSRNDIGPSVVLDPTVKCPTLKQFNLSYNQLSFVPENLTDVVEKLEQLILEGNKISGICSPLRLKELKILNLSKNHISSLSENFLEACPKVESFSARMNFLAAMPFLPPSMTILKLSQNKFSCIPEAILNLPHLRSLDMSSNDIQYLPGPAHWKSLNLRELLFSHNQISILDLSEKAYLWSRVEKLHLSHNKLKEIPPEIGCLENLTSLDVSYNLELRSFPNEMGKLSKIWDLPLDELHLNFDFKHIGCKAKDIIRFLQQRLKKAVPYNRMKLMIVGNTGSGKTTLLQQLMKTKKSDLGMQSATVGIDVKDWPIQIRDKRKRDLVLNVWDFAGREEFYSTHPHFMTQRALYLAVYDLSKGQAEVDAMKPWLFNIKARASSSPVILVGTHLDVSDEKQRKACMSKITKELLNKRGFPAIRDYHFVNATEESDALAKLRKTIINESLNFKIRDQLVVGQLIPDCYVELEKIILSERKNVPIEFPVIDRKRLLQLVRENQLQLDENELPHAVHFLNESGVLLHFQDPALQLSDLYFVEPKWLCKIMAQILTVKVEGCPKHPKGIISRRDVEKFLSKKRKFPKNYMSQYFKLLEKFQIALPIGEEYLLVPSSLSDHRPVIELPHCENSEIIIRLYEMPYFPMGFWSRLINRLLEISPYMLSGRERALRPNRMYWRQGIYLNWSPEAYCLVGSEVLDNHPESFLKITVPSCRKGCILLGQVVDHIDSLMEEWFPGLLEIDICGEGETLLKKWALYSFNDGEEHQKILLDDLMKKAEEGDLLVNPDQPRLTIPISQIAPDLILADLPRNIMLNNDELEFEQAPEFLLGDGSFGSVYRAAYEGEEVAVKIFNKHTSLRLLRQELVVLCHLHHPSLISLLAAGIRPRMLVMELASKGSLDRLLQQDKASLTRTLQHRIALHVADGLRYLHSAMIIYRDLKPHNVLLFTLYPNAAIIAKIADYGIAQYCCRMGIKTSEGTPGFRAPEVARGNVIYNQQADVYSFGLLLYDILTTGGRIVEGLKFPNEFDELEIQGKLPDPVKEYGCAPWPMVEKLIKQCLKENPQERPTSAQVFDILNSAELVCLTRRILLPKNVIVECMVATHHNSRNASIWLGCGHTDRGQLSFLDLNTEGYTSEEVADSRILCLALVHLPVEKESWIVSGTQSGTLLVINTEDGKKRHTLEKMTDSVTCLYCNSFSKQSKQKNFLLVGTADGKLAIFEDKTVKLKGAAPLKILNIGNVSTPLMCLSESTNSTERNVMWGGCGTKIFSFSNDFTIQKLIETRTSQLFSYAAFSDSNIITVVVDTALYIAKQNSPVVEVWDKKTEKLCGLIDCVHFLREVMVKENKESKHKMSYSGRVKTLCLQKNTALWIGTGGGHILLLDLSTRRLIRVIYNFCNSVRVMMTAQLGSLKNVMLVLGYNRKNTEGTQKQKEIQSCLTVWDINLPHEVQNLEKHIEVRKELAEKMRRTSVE

Regarding `COc1ccc(CNc2nccc3[nH]nc(C)c23)c(OC)c1` [Example 97, (2,4-Dimethoxy-benzyl)-(3-methyl-1H-pyrazolo[4,3-c]pyridin-4-yl)-amine], the IC50 is 1000 to 10000 nM.

Take `c1cc2[nH]nc(-c3ccc(N4CCOCC4)cc3)c2c(NC2CCCCC2)n1` [Example 152, Cyclohexyl-[3-(4-morpholin-4-yl-phenyl)-1H-pyrazolo[4,3-c]pyridin-4-yl]-amine]: the IC50 lay within 100 to 1000 nM.

On to `CCN(CC)CCNc1nccc2[nH]nc(C)c12` [Example 14, N,N-diethyl-N′-(3-methyl-1H-pyrazolo[4,3-c]pyridin-4-yl)-ethane-1,2-diamine], for which the 50% inhibitory concentration (IC50) was 1000 to 10000 nM.

On to `Cc1n[nH]c2ccnc(NCC3CCCCC3)c12` [Example 325, Cyclohexylmethyl-(3-methyl-1H-pyrazolo[4,3-c]pyridin-4-yl)-amine], for which the IC50 fell in the range of 1000 to 10000 nM.

For the compound `Cc1n[nH]c2ccnc(NCC3CCOCC3)c12` [Example 17], the IC50 is 1000 to 10000 nM.

With `Cc1n[nH]c2ccnc(Nc3ccccc3F)c12` [Example 62, (2-Fluoro-phenyl)-(3-methyl-1H-pyrazolo[4,3-c]pyridin-4-yl)-amine], the IC50 was 100 to 1000 nM.

On to `N#CCc1ccc(-c2n[nH]c3ccnc(NC4CCCCC4)c23)cc1` [Example 156, [4-(4-Cyclohexylamino-1H-pyrazolo[4,3-c]pyridin-3-yl)-phenyl]-acetonitrile], for which the IC50 was in the range of 100 to 1000 nM.

On to `CN1CCC(C(=O)Nc2ccc(CCc3n[nH]c4ccnc(NC5CCCCC5)c34)cc2)CC1` [Example 271, 1-Methyl-piperidine-4-carboxylic acid {4-[2-(4-cyclohexylamino-1H-pyrazolo[4,3-c]pyridin-3-yl)-ethyl]-phenyl}-amide], for which the IC50 was 100 to 1000 nM.

For `O=C1CCCN1c1n[nH]c2ccnc(NC3CCCCC3)c12` [Example 230, 1-(4-Cyclohexylamino-1H-pyrazolo[4,3-c]pyridin-3-yl)-pyrrolidin-2-one], the IC50 was 1000 to 10000 nM.

Regarding `Cc1n[nH]c2ccnc(CC3CCCCC3)c12` [Example 126, 4-Cyclohexylmethyl-3-methyl-1H-pyrazolo[4,3-c]pyridine], the IC50 was in the range of 1000 to 10000 nM.

Turning to `Cn1ncnc1C1CCCN(C(=O)CCc2n[nH]c3ccnc(NC4CCCCC4)c23)C1` (stereo not shown) [Example 239, 3-(4-Cyclohexylamino-1H-pyrazolo[4,3-c]pyridin-3-yl)-1-[3-(2-methyl-2H-1,2,4-triazol-3-yl)-piperidin-1-yl]-propan-1-one], the IC50 was in the range of 100 to 1000 nM.

Take `CN1CCN(C(=O)CCc2n[nH]c3ccnc(NC4CCCCC4)c23)CC1c1ccccc1` (stereo not shown) [Example 245, 3-(4-Cyclohexylamino-1H-pyrazolo[4,3-c]pyridin-3-yl)-1-(4-methyl-3-phenyl-piperazin-1-yl)-propan-1-one]: the IC50 lay within 100 to 1000 nM.

For the compound `Cc1n[nH]c2ccnc(NCc3ccco3)c12` [Example 303, Furan-2-ylmethyl-(3-methyl-1H-pyrazolo[4,3-c]pyridin-4-yl)-amine], the IC50 lay in the range of 1000 to 10000 nM.

With `Cc1n[nH]c2ccnc(O[C@@H](C)Cc3ccccc3)c12` [Example 300, 3-Methyl-4-((S)-1-methyl-2-phenyl-ethoxy)-1H-pyrazolo[4,3-c]pyridine], the IC50 fell in the range of 100 to 1000 nM.

For `Cc1n[nH]c2ccnc(NCC(C)(C)C)c12` [Example 32, (2,2-Dimethyl-propyl)-(3-methyl-1H-pyrazolo[4,3-c]pyridin-4-yl)-amine], the IC50 lay in the range of 1000 to 10000 nM.

`O=C(Nc1ccc(CCc2n[nH]c3ccnc(NC4CCCCC4)c23)cc1)c1cccnc1` [Example 266, N-{4-[2-(4-Cyclohexylamino-1H-pyrazolo[4,3-c]pyridin-3-yl)-ethyl]-phenyl}-nicotinamide]: the IC50 is under 100 nM.

On to `c1cc2[nH]nc(-c3ccoc3)c2c(OC2CCCCC2)n1` [Example 236, 4-Cyclohexyloxy-3-furan-3-yl-1H-pyrazolo[4,3-c]pyridine], for which the IC50 was under 100 nM.

As for `COCCNC(=O)c1ccc(Nc2nccc3[nH]nc(C)c23)cc1` [Example 108, N-(2-Methoxy-ethyl)-4-(3-methyl-1H-pyrazolo [4,3-c]pyridin-4-ylamino)-benzamide], the IC50 lay within 1000 to 10000 nM.

In the case of `COc1cccc(-c2n[nH]c3ccnc(NC4CCCCC4)c23)c1` [Example 146, Cyclohexyl-[3-(3-methoxy-phenyl)-1H-pyrazolo[4,3-c]pyridin-4-yl]-amine], the IC50 is 100 to 1000 nM.

Regarding `Cc1n[nH]c2ccnc(OC3CCCC3)c12` [Example 115, 4-Cyclopentyloxy-3-methyl-1H-pyrazolo[4,3-c] pyridine], the IC50 is under 100 nM.

For `Cn1nccc1NC(=O)c1ccc(CCc2n[nH]c3ccnc(NC4CCCCC4)c23)cc1` [Example 252, 4-[2-(4-Cyclohexylamino-1H-pyrazolo[4,3-c]pyridin-3-yl)-ethyl]-N-(2-methyl-2H-pyrazol-3-yl)-benzamide], the IC50 lay within 100 to 1000 nM.

With `CNC(=O)CCc1n[nH]c2ccnc(NC3CCCCC3)c12` [Example 210, 3-(4-Cyclohexylamino-1H-pyrazolo[4,3-c]pyridin-3-yl)-N-methyl-propionamide], the IC50 was 1000 to 10000 nM.

For `CC1CN(C(=O)CCc2n[nH]c3ccnc(NC4CCCCC4)c23)C1` [Example 241, 3-(4-Cyclohexyl-amino-1H-pyrazolo [4,3-c]pyridin-3-yl)-1-(3-methyl-azetidin-1-yl)-propan-1-one], the IC50 was under 100 nM.

For `Cc1n[nH]c2ccnc(N[C@H](CO)C(C)C)c12` [Example 28, (S)-3-Methyl-2-(3-methyl-1H-pyrazolo[4,3-c]pyridin-4-ylamino)-butan-1-ol], the IC50 was 1000 to 10000 nM.

On to `O=C(Nc1ccc(CCc2n[nH]c3ccnc(NC4CCCCC4)c23)cc1)c1ccncc1` [Example 267, N-{4-[2-(4-Cyclohexylamino-1H-pyrazolo[4,3-c]pyridin-3-yl)-ethyl]-phenyl}-isonicotinamide], for which the IC50 is under 100 nM.

Take `Cc1n[nH]c2ccnc(N3CCOCC3)c12` [Example 10, 3-Methyl-4-morpholin-4-yl-1H-pyrazolo[4,3-c]pyridine]: the IC50 was 1000 to 10000 nM.

On to `Cc1n[nH]c2ccnc(-c3ccccc3)c12` [Example 56, 3-Methyl-4-phenyl-1H-pyrazolo[4,3-c] pyridine], for which the IC50 is 1000 to 10000 nM.

Consider `Cc1n[nH]c2ccnc(Nc3ccc4cn[nH]c4c3)c12` [Example 93, (1H-Indazol-6-yl)-(3-methyl-1H-pyrazolo[4,3-c]pyridin-4-yl)-amine], for which the half-maximal inhibitory concentration (IC50) lay within 100 to 1000 nM.

`CN1CCC(C(=O)Nc2cccc(CCc3n[nH]c4ccnc(NC5CCCCC5)c34)c2)CC1` [Example 224, 1-Methyl-piperidine-4-carboxylic acid {3-[2-(4-cyclohexylamino-1H-pyrazolo[4,3-c]pyridin-3-yl)-ethyl]-phenyl}-amide]: the IC50 fell in the range of 100 to 1000 nM.

On to `CC[C@H](C)Nc1nccc2[nH]nc(C)c12` [Example 44], for which the IC50 was 100 to 1000 nM.

As to `Cc1n[nH]c2ccnc(Nc3cccc(Br)c3)c12` [Example 67, (3-Bromo-phenyl)-(3-methyl-1H-pyrazolo[4,3-c]pyridin-4-yl)-amine], the IC50 lay within 100 to 1000 nM.

For `Cc1n[nH]c2ccnc(Nc3cccc(F)c3)c12` [Example 65, (3-Fluoro-phenyl)-(3-methyl-1H-pyrazolo[4,3-c]pyridin-4-yl)-amine], the IC50 lay in the range of 100 to 1000 nM.

Regarding `Cc1n[nH]c2ccnc(N[C@H](C)C(C)C)c12` [Example 39, ((R)-1,2-Dimethyl-propyl)-(3-methyl-1H-pyrazolo[4,3-c]pyridin-4-yl)-amine], the IC50 lay in the range of 100 to 1000 nM.

With `Cc1n[nH]c2ccnc(Nc3cc(F)cc(F)c3)c12` [Example 69, (3,5-Difluoro-phenyl)-(3-methyl-1H-pyrazolo[4,3-c]pyridin-4-yl)-amine], the IC50 lay within 100 to 1000 nM.

As for `Cc1n[nH]c2ccnc(OCC(C)C)c12` [Example 280, 4-Isobutoxy-3-methyl-1H-pyrazolo[4,3-c]pyridine], the IC50 is under 100 nM.

As to `Cc1n[nH]c2ccnc(Nc3ccc(C(=O)N(C)c4ccccc4)cc3)c12` [Example 109, N-Methyl-4-(3-methyl-1H-pyrazolo[4,3-c]pyridin-4-ylamino)-N-phenyl-benzamide], the IC50 lay in the range of 1000 to 10000 nM.

Turning to `Cc1n[nH]c2ccnc(O[C@@H](C)C(C)C)c12` [Example 292, 4-((S)-1,2-Dimethyl-propoxy)-3-methyl-1H-pyrazolo [4,3-c]pyridine], the 50% inhibitory concentration (IC50) was in the range of 100 to 1000 nM.

In the case of `c1cc2[nH]nc(-c3ccc(N4CCOCC4)nc3)c2c(NC2CCCCC2)n1` [Example 154, Cyclohexyl-[3-(6-morpholin-4-yl-pyridin-3-yl)-1H-pyrazolo[4,3-c]pyridin-4-yl]-amine], the half-maximal inhibitory concentration (IC50) was 100 to 1000 nM.

Take `FC(F)(F)Oc1ccccc1-c1n[nH]c2ccnc(NC3CCCCC3)c12` [Example 151, Cyclohexyl-[3-(2-trifluoromethoxy-phenyl)-1H-pyrazolo[4,3-c]pyridin-4-yl]-amine]: the 50% inhibitory concentration (IC50) lay within 1000 to 10000 nM.

Turning to `O=C(Nc1ccc(CCc2n[nH]c3ccnc(NC4CCCCC4)c23)cc1)c1ccccn1` [Example 265, Pyridine-2-carboxylic acid {4-[2-(4-cyclohexylamino-1H-pyrazolo[4,3-c]pyridin-3-yl)-ethyl]-phenyl}-amide], the IC50 is under 100 nM.

Take `CC(C)CN(C)C(=O)c1ccc(CCc2n[nH]c3ccnc(NC4CCCCC4)c23)cc1` [Example 249, 4-[2-(4-Cyclohexylamino-1H-pyrazolo[4,3-c]pyridin-3-yl)-ethyl]-N-isobutyl-N-methyl-benzamide]: the IC50 is under 100 nM.

`Cc1n[nH]c2ccnc(NC(C)C)c12` [Example 36, Isopropyl-(3-methyl-1H-pyrazolo[4,3-c]pyridin-4-yl)-amine]: the 50% inhibitory concentration (IC50) fell in the range of 100 to 1000 nM.

Turning to `O=C(CCc1n[nH]c2ccnc(NC3CCCCC3)c12)N1CCC[C@@H](c2ccccc2)C1` [Example 190, 3-(4-Cyclohexylamino-1H-pyrazolo[4,3-c]pyridin-3-yl)-1-((S)-3-phenyl-piperidin-1-yl)-propan-1-one], the IC50 was 100 to 1000 nM.

A word on the IC50: it is the concentration that gives 50% inhibition.
